Consider one compound from PubChem BioAssay AID507.

The assay relates to Human MGC4172 (short-chain dehydrogenase/reductase, DHRS11). Description: MGC4172 binders by thermal stabilisation, biophysical, DSF, SYPRO orange, recombinant human protein (AID 507). As to conditions: at 100 µM, protein 2 µM, buffer 10 mM HEPES, pH 7.5, NaCl 150 mM, NADPH 200 µM, hits give high values.

For the compound `CN(CCOc1ccc(CC2SC(=O)NC2=O)cc1)c1ccccn1` (stereo unspecified), the Tm shift was 2.3 Celsius.
